Reference: patent US4920128A, “Pyrazolo[3,4-b]quinolines and their use as antiviral agents” (Sterling Drug Inc., priority 1988, dated 1990)
In brackets after ≈: the same amount, converted by molar mass.

Legend:
[1] = system: herpes simplex virus type 2 (HSV-2); test: HSV-2 plaque-reduction on mouse embryo fibroblast monolayers; format: cell-based; details: concentration which inhibited the number of plaques by 50%, interpolated, HSV-2 (Curtis strain), ~80 pfu, 2 days at 37° C.; for IC50: Human alphaherpesvirus 2, Fibroblast, 48 h, read-out: MIC
Procedure: The activity of the compounds of the invention against herpes simplex virus type 2 (HSV-2) was determined by measuring plaque-reduction activity on mouse embryo fibroblast monolayers. Two-day-old monolayers of Balb/c or ICR mouse embryo fibroblasts (MEF) were infected with approximately 80 pfu (plaque forming units) of HSV-2 (Curtis strain) in the presence of various concentrations of the test compounds. After a 1 hour absorption period at 37° C. and 2% CO2, the inoculum was removed and an overlay containing equal parts of 2X MS medium supplemented with 10% fetal calf serum (FSC) and 1% molten Seakem agarose was added to cell monolayers. Both the inocula and the overlay mixtures contained 1:200 dilutions of the test compound made from stock dilutions in dimethylsulfoxide. After incubation at 37° C. and 2% CO2 for 2 days, the monolayers were fixed with 5% glutaraldehyde and stained with 0.25% aqueous crystal violet. The plaques were quantitated by visual inspection. The minimum inhibitory concentration (MIC) for a compound was defined as the concentration in micrograms per milliliter (μg/ml) which inhibited the number of plaques by 50%. The MIC was calculated by interpolation.

[2] = system: phenylephrine-contracted aortic ring preparation; test: vasodilator activity in phenylephrine-contracted aortic ring preparation from the spontaneously hypertensive rat (SHR); details: 50% of maximal relaxation induced by papaverine (200 μM), contracted with 1 μM phenylephrine
Procedure: Aortic ring preparations from SHR are suspended in buffered physiological saline and induced to contract by addition of 1 μM phenylephrine, a selective α1 -adrenergic agonist. When a sustained contraction is obtained, the test compound is added cumulatively in ascending concentrations beginning at 1 μM. At the end of the addition of the test compound, a 200 μM concentration of papaverine is added to the organ bath for induction of a 100% vasodilator response. Percent relaxation by the test compound is expressed as a percent of maximal relaxation induced by papaverine. […] By this procedure, EC50 values for certain compounds of the invention were determined with the following results: […]

With COc1ccc2nc3[nH]nc(N)c3cc2c1 [1(d), 6-Methoxy-1H-pyrazolo[3,4-b]quinolin-3-amine] the IC50 [1] was 1.5 µg/mL (≈ 7 µM) and the EC50 [2] was 31 µM.

COc1ccc2nc3c(cc2c1)c(Br)nn3CCN(C)C [Example 36, 3-Bromo-1-[2-(dimethylamino)ethyl]-6-methoxy-1H-pyrazolo[3,4-b]quinoline] showed an IC50 [1] of 4.3 µg/mL (≈ 12.3 µM).

Molecule COc1ccc2cc3c(N)n[nH]c3nc2c1 [3(d), 7-Methoxy-1H-pyrazolo[3,4-b]quinolin-3-amine] has an IC50 [1] of 4.3 µg/mL (≈ 20.1 µM) and an EC50 [2] of 21 µM.

With CCOC(=O)Cn1nc(N)c2cc3ccc(OC)cc3nc21 [Example 19, Ethyl 3-amino-7-methoxy-1H-pyrazolo[3,4-b]quinolin-1-acetate] the IC50 [1] was 12 µg/mL (≈ 40 µM) and the EC50 [2] was 71 µM.

With Nc1n[nH]c2nc3ccc(O)cc3cc12 [Example 14, 3-Amino-1H-pyrazolo[3,4-b]quinolin-6-ol] the EC50 [2] was 25 µM.

COc1ccc2cc3c(N)nn(-c4ccccc4)c3nc2c1 [Example 11, 7-Methoxy-1-phenyl-1H-pyrazolo[3,4-b]quinolin-3-amine] was tested, and the IC50 [1] was 19 µg/mL (≈ 65.4 µM).

COc1ccc2cc3c(C#N)nn(CCN(C)C)c3nc2c1 [Example 38, 1[2-(Dimethylamino)ethyl]-7-methoxy-1H-pyrazolo[3,4-b]quinoline-3-carbonitrile] showed an IC50 [1] of 0.82 µg/mL (≈ 2.78 µM).

Work on CCNC(=O)Cn1nc(N)c2cc3ccc(OC)cc3nc21 [Example 28, 3-Amino-7-methoxy-N-ethyl-1H-pyrazolo[3,4-b]quinolin-1-acetamide] yielded an EC50 [2] of 70 µM.

COc1ccc2cc3c(Cl)nn(CC(C)N(C)C)c3nc2c1 (stereo not drawn) [Example 45, 3-Chloro-1-[2-(dimethylamino)-2-methylethyl]-7-methoxy-1H-pyrazolo[3,4-b]quinoline] showed an IC50 [1] of 0.88 µg/mL (≈ 2.76 µM).

Molecule COc1ccc2cc3c(N)nn(C)c3nc2c1 [Example 7, 7-Methoxy-1-methyl-1H-pyrazolo[3,4-b]quinolin-3-amine] has an IC50 [1] of 6.4 µg/mL (≈ 28 µM) and an EC50 [2] of 43 µM.

In the case of CCn1nc(N)c2cc3ccc(OC)cc3nc21 [Example 10, 1-Ethyl-7-methoxy-1H-pyrazolo[3,4-b]quinolin-3-amine], the IC50 [1] is reported as 7.8 µg/mL (≈ 32.2 µM).

COc1ccc2cc3c(N)nn(CCN(C)C)c3nc2c1 [Example 18, 1-[2-(Dimethylamino)ethyl]-7-methoxy-1H-pyrazolo[3,4-b]quinolin-3-amine] was tested, and the IC50 [1] was 12 µg/mL (≈ 42.1 µM) and the EC50 [2] was 25 µM.

In the case of CCN(CC)CCn1nc(N)c2cc3ccc(O)cc3nc21 [Example 23], the IC50 [1] is reported as 39 µg/mL (≈ 130 µM) and the EC50 [2] is reported as 33 µM.

Molecule CCN(CC)CCn1nc(N)c2cc3cc(OC)ccc3nc21 [Example 16, 1-[2-(Diethylamino)ethyl]-6-methoxy-1H-pyrazolo[3,4-b]quinolin-3-amine] has an EC50 [2] of 40 µM.

COc1cc2cc3c(N)n[nH]c3nc2cc1OC [4(d), 6,7-Dimethoxy-1H-pyrazolo[3,4-b]quinolin-3-amine] was tested, and the EC50 [2] was 18 µM.

Work on Nc1n[nH]c2nc3cc(O)ccc3cc12 [Example 13, 3-Amino-1H-pyrazolo[3,4-b]quinolin-7-ol] yielded an IC50 [1] of 13 µg/mL (≈ 64.9 µM) and an EC50 [2] of 87 µM.

With CCN(CC)CCn1nc(N)c2cc3ccc(OC)cc3nc21 [Example 22, 1-[2-(Diethylamino)ethyl]-7-methoxy-1H-pyrazolo[3,4-b]quinolin-3-amine] the IC50 [1] was 23 µg/mL (≈ 73.4 µM) and the EC50 [2] was 22 µM.

COc1ccc2nc3c(cc2c1)c(C(N)=O)nn3C [Example 35, 6-Methoxy-1-methyl-1H-pyrazolo[3,4-b]quinoline-3-carboxamide] gave an IC50 [1] of 7 µg/mL (≈ 27.3 µM) and an EC50 [2] of 9 µM.

In the case of COc1ccc2cc3c(N)nn(CC(C)N(C)C)c3nc2c1 (stereo not drawn) [Example 44a, 1-[2-(dimethylamino)-2-methylethyl]-7-methoxy-1H-pyrazolo[3,4-b]quinolin-3-amine], the IC50 [1] is reported as 11 µg/mL (≈ 36.7 µM).

COc1ccc2nc3c(cc2c1)c(N)nn3CC(=O)N(C)C [Example 25, 3-Amino-6-methoxy-N,N-dimethyl-1H-pyrazolo[3,4-b]quinolin-1-acetamide] was tested, and the EC50 [2] was 116 µM.

In the case of CCCn1nc(N)c2cc3ccc(OC)cc3nc21 [Example 9, 7-Methoxy-1H-1-propylpyrazolo[3,4-b]quinolin-3-amine], the IC50 [1] is reported as 5.3 µg/mL (≈ 20.7 µM).

CNCCn1nc(Br)c2cc3ccc(OC)cc3nc21 [Example 41, 3-Bromo-7-methoxy-1-(2-methylaminoethyl)-1H-pyrazolo[3,4-b]quinoline] was tested, and the IC50 [1] was 0.72 µg/mL (≈ 2.15 µM).

CCNCCn1nc(N)c2cc3ccc(OC)cc3nc21 [Example 29, 1-[2-(Ethylamino)ethyl]-7-methoxy-1H-pyrazolo[3,4-b]quinolin-3-amine] showed an IC50 [1] of 6.7 µg/mL (≈ 23.5 µM).

COc1ccc2cc3c(N)nn(CCN4CCOCC4)c3nc2c1 [Example 15, 7-Methoxy-1-[2-(4-morpholinyl)ethyl]-1H-pyrazolo[3,4-b]quinolin-3-amine] showed an IC50 [1] of 44 µg/mL (≈ 134 µM).

With Cn1nc(N)c2cc3ccc(O)cc3nc21 [Example 12, 3-Amino-1-methyl-1H-pyrazolo[3,4-b]quinolin-7-ol] the EC50 [2] was 57 µM.

COc1ccc2nc3c(cc2c1)c(Cl)nn3C [Example 31, 3-Chloro-6-methoxy-1-methyl-1H-pyrazolo[3,4-b]quinoline] gave an IC50 [1] of 18 µg/mL (≈ 72.7 µM).

In the case of COc1ccc2nc3c(cc2c1)c(N)nn3CCN(C)C [Example 21, 1-[2-(Dimethylamino)ethyl]-6-methoxy-1H-pyrazolo[3,4-b]quinolin-3-amine], the IC50 [1] is reported as 24 µg/mL (≈ 84.1 µM) and the EC50 [2] is reported as 38 µM.

For CNC(C)Cn1nc(Cl)c2cc3ccc(OC)cc3nc21 (stereo not drawn) [Example 46, 3-Chloro-1-[2-(methylamino)-2-methylethyl]-7-methoxy-1H-pyrazolo[3,4-b]quinoline], the IC50 [1] was 3.7 µg/mL (≈ 12.1 µM).

Molecule COc1ccc2nc3c(cc2c1)c(N)nn3CCCN(C)C [Example 17, 1-[3-(Dimethylamino)propyl]-6-methoxy-1H-pyrazolo[3,4-b]quinolin-3-amine] has an IC50 [1] of 78 µg/mL (≈ 261 µM) and an EC50 [2] of 91 µM.

With COc1ccc2cc3c(Br)nn(CCN(C)C)c3nc2c1 [Example 37, 3-Bromo-1-[2-(dimethylamino)ethyl]-7-methoxy-1H-pyrazolo[3,4-b]quinoline] the IC50 [1] was 0.97 µg/mL (≈ 2.78 µM).

Work on COC(=O)c1nn(CCN(C)C)c2nc3cc(OC)ccc3cc12 [Example 39, Methyl 1-[2-(dimethylamino)ethyl]-7-methoxy-1H-pyrazolo[3,4-b]quinoline-3-carboxylate] yielded an IC50 [1] of 2.3 µg/mL (≈ 7 µM).

COc1ccc2nc3c(cc2c1)c(C#N)nn3C [Example 33, 6-Methoxy-1-methyl-1H-pyrazolo[3,4-b]quinoline-3-carbonitrile] was tested, and the IC50 [1] was 42 µg/mL (≈ 176 µM).

With COc1ccc2cc3c(N)nn(CN(C)C)c3nc2c1 [Example 30, 1-[(Dimethylamino)methyl]-7-methoxy-1H-pyrazolo[3,4-b]quinolin-3-amine] the IC50 [1] was 2.6 µg/mL (≈ 9.58 µM).

CN(C)CCn1nc(N)c2cc3ccc(O)cc3nc21 [Example 24, 3-Amino-1-[2-(dimethylamino)ethyl]-1H-pyrazolo[3,4-b]quinolin-7-ol] was tested, and the IC50 [1] was 13 µg/mL (≈ 47.9 µM).

For Nc1n[nH]c2nc3ccccc3cc12 [2(d), 1H-Pyrazolo[3,4-b]quinolin-3-amine], the EC50 [2] was 26 µM.

“7-Methoxy-1-methyl-1H-pyrazolo[3,4-b]quinoline-3-methanamine [Example 34]” showed an MIC [1] of 15 µg/mL.

With COc1ccc2cc3c(Cl)nn(CCN(C)C)c3nc2c1 [Example 40, 3-Chloro-1-(2-dimethylaminoethyl)-7-methoxy-1H-pyrazolo[3,4-b]quinoline] the IC50 [1] was 0.67 µg/mL (≈ 2.2 µM).

Molecule CCOc1ccc2cc3c(N)n[nH]c3nc2c1 [5(d), 7-Ethoxy-1H-pyrazolo[3,4-b]quinolin-3-amine] has an IC50 [1] of 17 µg/mL (≈ 74.5 µM).

Work on COc1cccc2nc3[nH]nc(N)c3cc12 [6(d), 5-Methoxy-1H-pyrazolo[3,4-b]quinolin-3-amine] yielded an IC50 [1] of 13 µg/mL (≈ 60.7 µM).

For CNCCn1nc(N)c2cc3cc(OC)ccc3nc21 [Example 27, 1-[2-(Methylamino)ethyl]-6-methoxy-1H-pyrazolo[3,4-b]quinolin-3-amine], the IC50 [1] was 13 µg/mL (≈ 47.9 µM).
